As a reminder, the IC50 is the concentration at which inhibition is half-maximal.

For one data set, the system named is EGFR. Description: Western blot of EGFR inhibition in A431 and Calu3 cells under normoxia and hypoxia. The following applies: 4 h treatment, EGF 50 ng/ml for 15 min. It is filed as cell-based. Here is the method:
(§1) Cells were plated in 96- or 6-well plates, respectively, in an HERA cell 150i (Thermo Scientific) with at 1% O2/5% CO2 level for indicated time points (72 h and 4 h for MTT assays and protein isolation, respectively) before analysis/harvesting.
Proteins were isolated, resolved by SDS/PAGE, and transferred onto a polyvinylidenedifluoride membrane for Western blotting by routine methods. The following antibodies were used: EGFR, pEGFR (Tyr1068), ERK1/2 (p44/42 MAPK), and pERK (Thr202/Tyr204) (all polyclonal rabbit - Cell Signaling Technology, Beverly, MA, USA). β-actin was monoclonal mouse AC-15 (Sigma). All primary antibodies were used in 1:1000 dilutions. Additionally, horseradish peroxidase-labelled secondary antibodies from Santa Cruz Biotechnology were used at working dilutions of 1:10000.
(In general: Immunoblotting shows a protein as a band on a membrane.)

The nature of data set [1]: Stability test in minimal essential medium. It is filed as physicochemical.
The next data set has as its system cell viability. Description: MTT-based cell viability under normoxic and hypoxic conditions. The conditions noted are these: 72 h treatment. How it is done: (§2) Cells were plated (2x10^3 cells/well) in 96-well plates and allowed to recover for 24 h. Subsequently, the dissolved drugs were added. After 72 h exposure, the proportion of viable cells was determined by MTT assay following the manufacturer's recommendations (EZ4U, Biomedica, Vienna, Austria). Cytotoxicity was expressed as IC50 values calculated from full dose-response curves using Graph Pad Prism software.
as §1
As a first step, the anticancer activity of the novel Co(III) complex was tested in comparison to the metal-free ligand under normoxic and hypoxic conditions as shown in Figures 5 and 6A after 72 h treatment cell viability was measured using a MTT-based system. Values given are means ± standard deviation (SD) of one representative experiment performed in triplicates (Statistical analysis: t-test; ***p< 0.001 ^a: difference between L2 and 1a; ^b: difference between 1a normoxia and 1a hypoxia).

A further data set relates to Calu3 xenografts. Description: Calu3 xenograft tumour growth in SCID mice. The following applies: when a tumour size of more than 200 mm^2 was reached. Type of data set: in vivo. The source says:
(§3) Six- to 8-week-old female CB-17 scid/scid (SCID) mice were purchased from Harlan Laboratories (San Pietro al Natisone, Italy). The animals were kept in a pathogen-free environment and every procedure was done in a laminar airflow cabinet. The experiments were done according to the regulations of the Ethics Committee for the Care and Use of Laboratory Animals at the Medical University Vienna, The U.S. Public Health Service Policy on Human Care and Use of Laboratory Animals as well as the United Kingdom Coordinating Committee on Cancer Prevention Research's Guidelines for the Welfare of Animals in Experimental Neoplasia.
(§4) This is of interest, as Calu3 xenografts are characterized by a rather specific tumor histology, where small tumour islands are surrounded by murine fibroblasts. Consequently, in these xenografts a larger tumor volume might be necessary for the development of hypoxic conditions and, thus, activation of 1b.

A further data set deals with A431 xenografts. Description: A431 xenograft tumour growth in SCID mice. Type of data set: in vivo. The following applies: 5 mg/kg i.v. or 25 mg/kg i.p.; efficacy comparable to erlotinib, especially upon intraperitoneal application.
Excerpt: as §3, §4

The test system of the next data set is Calu3. Description: MTT cytotoxicity assay, Calu3 cells. It is filed as cell-based. The conditions noted are these: Homo sapiens, Calu-3; MTT assay after 72 h treatment; wild-type EGFR-overexpressing erlotinib-sensitive Calu3; read-out: Inhibition of Cell Growth (IC50 µM) Calu3. Here is the method:
as §2
(§5) As a first step MTT assays (after 72 h treatment) performed in wild-type EGFR-overexpressing erlotinib-sensitive A431 and Calu3 cells as well as in H1975 cells, which harbour a resistance-conferring EGFR mutation T790M (Table 1). […] Only in Calu3 cells activity in the low µM range was observed. In contrast, L2 containing the smallest chelating moiety had IC50 values in the low µM range in both erlotinib-responsive models. […] Table 1. Anticancer activity (IC50 values)
A general note: Tetrazolium dyes change colour on reduction, which living cells bring about.

Another data set has as its system H1975. Description: MTT cytotoxicity assay, H1975 cells. The following applies: Homo sapiens, NCI-H1975; MTT assay after 72 h treatment; H1975 with resistance-conferring EGFR mutation T790M; read-out: Inhibition of Cell Growth (IC50 µM) H1975. Type of data set: cell-based. Here is the method:
The human NSCLC cell lines A431 (wt EGFR-overexpressing and erlotinib-sensitive) and H1975 (EGFR mutation at L858R as well as T790M and erlotinib-resistant) were purchased from American Type Culture Collection (ATCC), Rockville, MD, USA and cultivated unless otherwise indicated in humidified incubators (37°C, 21% O2, 5% CO2) in RPMI 1640 medium containing 10% fetal calf serum (PAA, Linz Austria). Cell cultures were periodically checked for Mycoplasma contamination.
as §2, §5

Another data set relates to A431. Description: MTT cytotoxicity assay, A431 cells. It is filed as cell-based. The following applies: Homo sapiens, A-431; MTT assay after 72 h treatment; wild-type EGFR-overexpressing erlotinib-sensitive A431; read-out: Inhibition of Cell Growth (IC50 µM) A431. How it is done: Cell cultures were periodically checked for Mycoplasma contamination.
Subsequently, the dissolved drugs were added. […] Cytotoxicity was expressed as IC50 values calculated from full dose-response curves using Graph Pad Prism software.

In a further data set the test system is EGFR signaling pathway. Description: Western blot of EGFR signaling (pERK, pEGFR) in EGF-stimulated cells. Type of data set: cell-based. The conditions noted are these: EGF-stimulated cells (HCC827 per Fig. 3), 4 h drug incubation, Western blotting.

Bounds are passed on as bounds.

For `CC(=O)C=C(C)[O-].CC(=O)C=C(C)[O-].F[P-](F)(F)(F)(F)F.NCCNc1ccc2ncnc(Nc3cccc(Br)c3)c2c1.[Co+3]` [Compound 1a, Bis(2,4-pentanedionato) N^6-(2-aminoethyl)-N^4-(3-bromophenyl) quinazoline-4,6-diamine cobalt(III) hexafluorophosphate], the “EGFR inhibitory potential, hypoxia” value with EGFR (hypoxia) was “potent activity similar to the metal-free ligand L2”. Moreover, the “EGFR inhibitory potential, normoxic conditions” value with EGFR (normoxic conditions) is “distinctly reduced”. Moreover, in [1], the “stable in minimal essential medium” value is recorded as “at least 24 h”. Besides, in the data set with cell viability (hypoxia (1% O2)), the “anticancer activity, hypoxia” value was “significantly increased”. In addition, the “anticancer activity (cell viability), normoxic conditions” value in the data set with cell viability (normoxic conditions, up to the highest tested concentration of 25 µM) was “widely inactive”.

With `CC(=O)C=C(C)[O-].CC(=O)C=C(C)[O-].NCCNc1ccc2ncnc(Nc3cccc(Br)c3)c2c1.[Cl-].[Co+3]` [Compound 1b, Bis(2,4-pentanedionato) N^6-(2-aminoethyl)-N^4-(3-bromophenyl) quinazoline-4,6-diamine cobalt(III) chloride], in [1], the “stable in minimal essential medium” value is on record as “at least 24 h”. In addition, in the data set on Calu3 xenografts, the “tumor growth of Calu3 xenografts” value is recorded as “induced distinct tumor regression”. Further, in the data set on A431 xenografts, the “tumor growth of A431 xenografts” value is “potently inhibited tumor growth”.

Consider `Brc1cccc(Nc2ncnc3ccc(N=Cc4ccccn4)cc23)c1` [Compound L1, N^4-(3-bromophenyl)-N^6-(pyridin-2-ylmethylene) quinazoline-4,6-diamine], for which the IC50 in the data set with Calu3 was 3.5 ± 0.08 µM; in the data set on H1975, 20.4 ± 3.8 µM; with A431, > 25 µM.

As to `Cl.Cl.NCCNc1ccc2ncnc(Nc3cccc(Br)c3)c2c1` [Compound L2, N^6-(2-aminoethyl)-N^4-(3-bromophenyl)quinazoline-4,6-diamine dihydrochloride], the IC50 is 2 ± 0.52 µM in the data set on Calu3, 15.5 ± 2.18 µM with H1975 and 9.15 ± 0.47 µM in the data set on A431. Moreover, in the data set with EGFR signaling pathway, the “inhibitory effects on ERK and EGFR phosphorylation levels” value is reported as “most potent EGFR inhibitor with activity similar to erlotinib”.

`C#Cc1cccc(Nc2ncnc3cc(OCCOC)c(OCCOC)cc23)c1` [erlotinib, reference compound]: the IC50 is 0.74 ± 0.02 µM in the data set with Calu3 and > 25 µM in the data set on H1975.

Source of the values: EP2924045A1, “New agents for the treatment of cancer” (Medizinische Universität Wien, priority 2014, dated 2015).
